Measured values published in patent publication US12018084B2, “Anti-CXCR2 antibodies and uses thereof” (Cephalon LLC, priority 2018, dated 2024).

Columns and labels:
[1] = biological target: T1, Human CXCR2 (Homo sapiens, UniProt P25025); assay: Calcium flux assay, HTS002C-CHEMISCREEN human CXCR2 calcium-optimized cell line; type: cell-based; settings: for EC50: human agonist potency
T1 sequence (P25025 1-360): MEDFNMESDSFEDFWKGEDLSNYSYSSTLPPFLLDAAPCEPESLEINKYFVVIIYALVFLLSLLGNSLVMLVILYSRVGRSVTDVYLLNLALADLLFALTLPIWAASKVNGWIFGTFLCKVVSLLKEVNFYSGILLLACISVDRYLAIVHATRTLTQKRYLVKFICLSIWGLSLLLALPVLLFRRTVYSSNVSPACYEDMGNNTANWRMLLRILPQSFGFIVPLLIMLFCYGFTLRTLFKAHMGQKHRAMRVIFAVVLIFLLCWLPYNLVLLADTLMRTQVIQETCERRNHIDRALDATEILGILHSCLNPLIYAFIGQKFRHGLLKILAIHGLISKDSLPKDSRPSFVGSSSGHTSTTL
Procedure: One of the signaling pathways downstream of CXCR2 activation that has a role in cell chemotaxis is characterized by calcium mobilization (flux). The ability of BKO-4A8-101c to inhibit human CXCR2 ligand-induced calcium flux was tested in the commercially available HTS002C-CHEMISCREEN™ human CXCR2 chemokine receptor calcium-optimized cell line.
The Fluo-4 NW calcium assay kit (Life Technologies) was used according to manufacturer's protocol for in-cell measurement of calcium mobilization, which was read using a FLIPR Tetra high-throughput cellular screening system (Molecular Devices). The peak response minus the basal response from each well was used to determine inhibition dose response curves fitting a four-parameter logistic equation and IC50 values.

[2] = biological target: T1, Human CXCR2; assay: Tango CXCR2-bla U2OS cell-based β-arrestin recruitment assay; set-up: The beta-arrestin/TEV protease fusion and the beta-lactamase reporter are separate parts of the cell line; settings: for EC50: human agonist potency
Excerpt: Cells were thawed, propagated, cultured and frozen according to the manufacturer's directions.
Preparation of Tango™ CXCR2-bla U2OS cells for use in cell-based assays: The manufacturer's protocol was altered to make use of 96-well plates instead of 384-well plates. Briefly, dividing cells were harvested one day prior to use. Cells were harvested and resuspended in assay medium (100% FreeStyle™ Expression Medium; Life Technologies; Cat #12338-018) at a viable cell density of 312,500 cells/mL. 128 μL of cell suspension was added per well in 96-well black-walled, clear bottom tissue culture-treated plates. Cells were incubated for 16-20 hrs at 37° C. in an atmosphere of 5% CO2 prior to use in assays.
Tango™ assay procedure: Assays were set up and run as described in the manufacturer's protocol. For antagonist assays, agonists were used at concentrations in the EC50-EC80 range. Assays were read using a FlexStation® 3 (Molecular Devices) fluorescence plate reader configured with the parameters given in Table 4. The blue/green emission ratio for each well was calculated by dividing the blue emission values by the green emission values. All inhibition curves were fitted using a four-parameter dose-response using GraphPad Prism™ (Version 7.01).
The Human CXCR2 Tango™ cell line was used to assess the ability of antibody BKO-4A8-101c to inhibit β-arrestin recruitment to agonist-activated CXCR2. All human ELR+ chemokine CXCR2 ligands were tested in antagonist dose response assays using calculated EC50 values of agonist.
The commercially available reporter cell line Tango™ CXCR2-bla U2OS (ThermoFisher Scientific) was used to assess the ability of the anti-CXCR2 antibodies to inhibit β-arrestin recruitment to agonist-activated CXCR2. Agonists were provided at their assay EC50 concentration for antagonist assays.

[3] = tested on: CD11b expression; settings: cited from earlier work
[4] = biological target: T2, CCR2b receptors (Homo sapiens, UniProt P41597); settings: selectivity versus CXCR2; cited from earlier work
T2 sequence (P41597 1-360 isoform P41597-2): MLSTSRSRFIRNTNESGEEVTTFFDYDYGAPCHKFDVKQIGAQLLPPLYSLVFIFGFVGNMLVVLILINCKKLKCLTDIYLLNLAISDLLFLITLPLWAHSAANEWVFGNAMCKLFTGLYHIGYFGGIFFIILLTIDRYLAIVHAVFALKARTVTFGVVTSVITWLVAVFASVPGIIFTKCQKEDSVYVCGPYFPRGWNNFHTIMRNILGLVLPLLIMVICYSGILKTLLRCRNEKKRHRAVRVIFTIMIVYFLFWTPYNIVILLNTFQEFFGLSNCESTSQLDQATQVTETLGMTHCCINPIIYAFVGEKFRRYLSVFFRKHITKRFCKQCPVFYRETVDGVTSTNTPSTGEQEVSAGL

[5] = biological target: T3, CXCR1 (Homo sapiens, UniProt P25024); settings: selectivity versus CXCR2; cited from earlier work
T3 sequence (P25024 1-350): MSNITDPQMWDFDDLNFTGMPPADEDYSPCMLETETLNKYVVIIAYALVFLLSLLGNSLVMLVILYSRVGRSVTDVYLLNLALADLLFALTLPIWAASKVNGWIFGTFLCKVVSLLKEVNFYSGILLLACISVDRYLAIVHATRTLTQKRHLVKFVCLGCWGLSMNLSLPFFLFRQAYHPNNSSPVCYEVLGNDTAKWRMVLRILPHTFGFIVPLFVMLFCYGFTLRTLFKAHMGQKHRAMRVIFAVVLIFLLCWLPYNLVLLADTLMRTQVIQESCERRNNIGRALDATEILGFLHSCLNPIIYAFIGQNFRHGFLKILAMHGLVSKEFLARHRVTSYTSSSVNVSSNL

[6] = tested on: neutrophil surface expression of CD11b; settings: cited from earlier work
[7] = tested on: COPD; settings: in vivo; cited from earlier work
[8] = tested on: mouse model of severe asthma; settings: pre-treatment with 10 and 30 mg/kg; not significantly different from HDM-vehicle; cited from earlier work

For “CXCL8: human agonist chemokine, Miltenyi Biotec 130-108-979 [reference compound]”, which EC50 [1] is on record?
Its EC50 is 3.2 nM.

With “CXCL1: human agonist chemokine, Miltenyi Biotec 130-108-974 [reference compound]” as the molecule, how does the EC50 [2] read?
The EC50 was 2.3 nM.

What about the EC50 [1] of the same molecule?
The EC50 was 2.62 nM.

With “CXCL2: human agonist chemokine, R&D Systems 276-GB [reference compound]” as the molecule, how does the EC50 [2] read?
Its EC50 is 33.3 nM.

What about the EC50 [1] of the same molecule?
Its EC50 is 37 nM.

With “CXCL6: human agonist chemokine, R&D Systems 333-GC [reference compound]” as the molecule, how does the EC50 [2] read?
Its EC50 is 9.4 nM.

What about the EC50 [1] of the same molecule?
The EC50 was 28.9 nM.

Which “effect on C5a, LTB4 or fMLP induced CD11b expression” value [3] does the source give for `C[C@@H](Oc1cc(NS(=O)(=O)N2CCC2)nc(SCc2cccc(F)c2F)n1)[C@@H](O)CO` [AZD5069] here?
Its value is “no effect”.

And the “fold less potent at CCR2b receptors” value [4]?
The value was over 150 fold.

And the “fold less potent at CXCR1” value [5]?
The value was over 150 fold.

Which results are given for `Cc1c(F)cccc1NC(=O)Nc1ccc(Cl)c(S(=O)(=O)[C@H]2CCCNC2)c1O` [Antagonist 5, Danirixin]?
CD11b upregulation on neutrophils [6]: block CD11b upregulation; IC50, CXCL1-induced ex vivo neutrophil surface expression of CD11b [6]: 0.069 mg/L; IC90, CXCL1-induced ex vivo neutrophil surface expression of CD11b ([6]; range 158-1080 ng/ml): 0.62 mg/L; IC90 ([6]; range 356-2443 nM, read-out: IC90, CXCL1-induced ex vivo neutrophil surface expression of CD11b): 1.4 µM; IC50 ([6]; read-out: IC50, CXCL1-induced ex vivo neutrophil surface expression of CD11b): 0.156 µM; CXCL1 Maximal Inhibition % ([2]; CXCL1 at EC50, comparison with comparators): 99%; CXCL5 Maximal Inhibition % ([2]; CXCL5 at EC50, comparison with comparators): 99%; CXCL8 Maximal Inhibition % ([2]; CXCL8 at EC50, comparison with comparators): 99%; CXCL1 Maximal Inhibition % ([1]; CXCL1 at EC50): 95%; CXCL8 Maximal Inhibition % ([1]; CXCL8 at EC50): 97%; primary end points in a Phase IIb trial for COPD [7]: failed to meet primary end points

With “CXCL5: human agonist chemokine, R&D Systems 254-XB [reference compound]” as the molecule, how does the EC50 [2] read?
The EC50 was 97.7 nM.

What about the EC50 [1] of the same molecule?
Its EC50 is 39.2 nM.

With “CXCL3: human agonist chemokine, R&D Systems 277-GG [reference compound]” as the molecule, how does the EC50 [2] read?
Its EC50 is 11.9 nM.

What about the EC50 [1] of the same molecule?
Its EC50 is 12.2 nM.

Which “inhibition of neutrophil cell numbers in the BAL (maximum)” value [8] does the source give for `CC[C@@H](Nc1c(Nc2cccc(C(=O)N(C)C)c2O)c(=O)c1=O)c1ccc(C)o1` [Antagonist 6, SCH 527123] here?
The value was at most 30%.
